Reference: patent US20260253225A1, “OPTICAL SYSTEM AND METHOD FOR MONITORING ABNORMALITY ASSOCIATED PARAMETERS IN CELL-CONTAINING SAMPLES” (priority 2023, published 2026)

Assays:
live Jurkat cells = assay: DIC microscopy of intracellular particles motion (ASD/PSD and MSD analysis); format: cell-based, human; conditions: 10 μM blebbistatin treatment, compared with ATP depletion
Experimental: In the following experimental results of the spectral analysis of position fluctuations in time of intracellular particles in Jurkat T lymphocytes, each cell before and after ATP depletion, are presented. […] Depletion of cellular ATP was induced by 30 min incubation with 0.2 μM of the mitochondrial complex 1 inhibitor Rotenone (Sigma-Aldrich, St. Louis, MO, United States) together with 10 mM glycolysis inhibitor 2-deoxy-D-glucose (Sigma-Aldrich, St. Louis, MO, United States). For the visualization and monitoring of intracellular objects, including vesicles, Differential Interference Contrast (DIC) microscopy was employed. Reference is made to FIG. 6a where DIC image of a representative live Jurkat cell is shown. […]
After thresholding the objects, the x and y positions of each identified particle at each point of time (determined by the MultiTracker plug in) were recorded (FIGS. 6c-6e). […] Then, the DFT of these time dependent position changes were calculated for each spatial dimension. The average DFT amplitudes of all moving particles in each cell under each condition were determined for the x and y spatial dimensions. […]
From the position results of the detected intracellular particles, the MSD values for time-lags from 0.3 to 3 s (with a 0.3 s gradual increase) were calculated. The average MSD values were determined for that series of time-lags for each cell before and after ATP depletion. […]

[1] = system: surface of aggregation of cells; assay: Dynamic reflective laser speckled imaging of cell surface vibrations; format: cell-based; conditions: before and after mibefradil treatment, 0-5 Hz range
Text: The inventors have used the above-described imaging system 120 (the experimental set up was built by modifying an inverted fluorescence microscope set up) to acquire the sequence of tissue's images-one such image is shown in FIG. 19A. The image data analysis described above were then used to determine cell vibrations at the surface of aggregation of cells before and after the augmentation of cell membrane vibrations using mibefradil. […] FIGS. 19C and 19D show power fit parameters for the ASD analysis results in the cells (shown in FIG. 19B) before and after mibefradil treatment: parameter b (FIG. 19C) and sum of amplitudes in the 0-5 Hz range (FIG. 19D). Multiple areas of cells (N=14) were measured and compared each before and after mibefradil treatment.

[2] = system: primary lymphocytes (benign), CD8 (malignant) and Jurkat (malignant) cells; assay: TIRF microscopy of cell membrane fluctuations in a model of the immune synapse; format: cell-based, human; conditions: frequency ranges 0-5 Hz and 10-25 Hz, before and after Mibefradil treatment
Text: So far, intracellular fluctuations as captured by the motion of intracellular particles or by the cell boundaries were described. The fluctuations of the cell membrane may have an impact on the formation and function of the immune synapse that forms between T cells and antigen presenting cells (APCs). To study such a possible impact, the inventors measured fluctuations of Jurkat cells at their interface with coverslips coated with αCD3ε antibodies. Such coverslips often serve as a model for the immune synapse, as the cells spread on the coverslips and get robustly activated. The membrane of the cells was stained with an αCD45 primary antibody, labeled with Alexa647 and imaged by time-lapse TIRF microscopy. […] The reflection light was detected using an avalanche photodiode (APD) with a band-pass filter of 650-720 nm. […] Fluorescence intensity of each pixel in each image was normalized by dividing its intensity with the average intensity of that time-dependent image. The temporal fluctuations of the normalized fluorescence intensities were analyzed by DFT for each pixel in a ROI. […] Live cells were measured without and after ATP depletion, while fixed cells served for control. […] The temporal fluctuations of the normalized fluorescence intensities were analyzed via DFT for each pixel in that ROI. […]

SMILES	effects on intracellular motion (live Jurkat cells)	mechanical vibrations of the cells' membrane [1]	cell membrane vibrations (average DFT amplitudes) [2]
Cc1ccc2c(c1)C(=O)C1(O)CCN(c3ccccc3)C1=N2 (stereo not drawn) [blebbistatin]	effects on intracellular motion of blebbistatin treatment and ATP depletion were similar		
COCC(=O)O[C@]1(CCN(C)CCCc2nc3ccccc3[nH]2)CCc2cc(F)ccc2[C@@H]1C(C)C [Mibefradil]		an increase in mechanical vibrations of the cells' membrane	increases cell membrane vibrations in all cell types
